The text below walks through data of US11382328B2, “Rapid drug discovery methods for pathogen inactivation” (priority 2019, dated 2022).

For this test, the system named is E. coli strain W3110. Description: Synergy assays: Biolog chemical sensitivity panels with Group IB metal, coefficient of drug interaction (CDI) from relative growth. The format is cell-based. The conditions noted are these: for CDI (coefficient of drug interaction), copper mixed with biocide: Copper (mM) section; for CDI (coefficient of drug interaction), gold + biocide: Gold (μM).

Setting [1] is: 2nd of 3 copper concentrations (value not shown), 4th of four biocide concentrations.
[2] abbreviates: Silver 0.5 μM, 4th of four biocide concentrations, E. coli.
Where [3] appears, read: Silver 1.0 μM, 4th of four biocide concentrations, E. coli.
Where [4] appears, read: Silver 5.0 μM, 4th of four biocide concentrations, E. coli.
The mark [5] stands for this setting: 1st of 3 copper concentrations (value not shown), 3rd of four biocide concentrations.
The mark [6] stands for this setting: 1st of 3 copper concentrations (value not shown), 4th of four biocide concentrations.
The mark [7] stands for this setting: 2nd of 3 copper concentrations (value not shown), 3rd of four biocide concentrations.
Where [8] appears, read: 3rd of 3 copper concentrations (value not shown), 3rd of four biocide concentrations.
The mark [9] stands for this setting: 3rd of 3 copper concentrations (value not shown), 4th of four biocide concentrations.
The mark [10] stands for this setting: Gold section of Table 5, first of three gold concentrations (μM, value not given), biocide concentration 4 of 4.
Where [11] appears, read: Gold section of Table 5, second of three gold concentrations (μM, value not given), biocide concentration 4 of 4.
The mark [12] stands for this setting: Gold section of Table 5, third of three gold concentrations (μM, value not given), biocide concentration 4 of 4.
Setting [13] is: Silver 0.5 μM, biocide concentration 4 of 4.
Where [14] appears, read: Silver 1.0 μM, biocide concentration 4 of 4.
The mark [15] stands for this setting: Silver 5.0 μM, biocide concentration 4 of 4.
The mark [16] stands for this setting: first of 3 gold concentrations, biocide concentration 4 of 4.
[17] abbreviates: second of 3 gold concentrations, biocide concentration 4 of 4.
Setting [18] is: third of 3 gold concentrations, biocide concentration 4 of 4.
The mark [19] stands for this setting: Silver 0.5 μM, biocide concentration 3 of 4.
Setting [20] is: Silver 1.0 μM, biocide concentration 3 of 4.
[21] abbreviates: Silver 5.0 μM, biocide concentration 3 of 4.
Setting [22] is: Gold section of Table 5, first of three gold concentrations (μM, value not given), biocide concentration 1 of 4.
[23] abbreviates: Gold section of Table 5, first of three gold concentrations (μM, value not given), biocide concentration 2 of 4.
Setting [24] is: Gold section of Table 5, second of three gold concentrations (μM, value not given), biocide concentration 2 of 4.
Setting [25] is: Gold section of Table 5, second of three gold concentrations (μM, value not given), biocide concentration 3 of 4.
The mark [26] stands for this setting: Gold section of Table 5, third of three gold concentrations (μM, value not given), biocide concentration 1 of 4.
Setting [27] is: Gold section of Table 5, third of three gold concentrations (μM, value not given), biocide concentration 2 of 4.
Where [28] appears, read: Gold section of Table 5, third of three gold concentrations (μM, value not given), biocide concentration 3 of 4.
Where [29] appears, read: Copper (mM), 1st of 3 copper concentrations (head line not shown), biocide concentration 4 of 4, E. coli.
[30] abbreviates: Copper (mM), 2nd of 3 copper concentrations (head line not shown), biocide concentration 4 of 4, E. coli.
[31] abbreviates: Copper (mM), 3rd of 3 copper concentrations (head line not shown), biocide concentration 4 of 4, E. coli.

Take `CCN(CC)C(=S)SSC(=S)N(CC)CC` [disulfiram]: the “CDI (coefficient of drug interaction), copper mixed with biocide” value (from here on “CDI … with biocide”) under setting [1] is “Tox”. In addition, the “CDI (coefficient of drug interaction)” value was “Tox” (Gold 5 μM, biocide concentration 3 of 4, E. coli); “Tox” (Gold 5 μM, biocide concentration 4 of 4, E. coli); “Tox” (Gold 25 μM, biocide concentration 3 of 4, E. coli); “Tox” (Gold 25 μM, biocide concentration 4 of 4, E. coli); “Tox” ([…], biocide concentration 3 of 4, E. coli); “Tox” ([…], biocide concentration 4 of 4, E. coli). Also, the “CDI (coefficient of drug interaction), silver + biocide” value (shortened to “CDI … silver + biocide”) is “Tox” under setting [2], “Tox” under setting [3] and “Tox” under setting [4].

Regarding `CCn1cc(C(=O)O)c(=O)c2cnc(N3CCNCC3)nc21` [pipemidic acid], the “CDI … with biocide” value is listed as “Tox” under setting [5]; “Tox” under setting [6]; “Tox” under setting [7]; “Tox” under setting [1]; “Tox” under setting [8]; “Tox” under setting [9].

Regarding `O=C1OC(CN2CCOCC2)CN1/N=C/c1ccc([N+](=O)[O-])o1` (centres unmarked) [furaltadone], under “Gold 50 μM, biocide concentration 4 of 4, E. coli”, the “CDI (coefficient of drug interaction)” value is on record as “Tox”.

Take `Nc1nc[nH]n1` [3-Amino-1,2,4-triazole]: the “CDI … with biocide” value under setting [6] was “Tox” and the “CDI … with biocide” value under setting [9] is listed as “Tox”. For the same compound, the “CDI (coefficient of drug interaction)” value was “Tox” under setting [10], “Tox” under setting [11] and “Tox” under setting [12]. Moreover, the CDI entry by setting is: under setting [13], “Tox”; under setting [14], “Tox”; under setting [15], “Tox”.

Regarding `CCN1CCN(C(=O)N[C@@H](C(=O)N[C@@H]2C(=O)N3[C@@H]2SC(C)(C)[C@@H]3C(=O)O)c2ccccc2)C(=O)C1=O` [piperacillin], the “CDI (coefficient of drug interaction), gold + biocide” value (from here on “CDI … gold + biocide”) is “Tox” under setting [16], “Tox” under setting [17] and “Tox” under setting [18]. Further, the CDI entry reads like this: under setting [19], “Tox”; under setting [13], “Tox”; under setting [20], “Tox”; under setting [14], “Tox”; under setting [21], “Tox”; under setting [15], “Tox”.

For the compound phleomycin, the “CDI … with biocide” value (1st of 3 copper concentrations (value not shown), 1st of four biocide concentrations) is 0.99; the “CDI … with biocide” value (1st of 3 copper concentrations (value not shown), 2nd of four biocide concentrations) is given as 1.27; the “CDI … with biocide” value under setting [5] is given as “Tox”; the “CDI … with biocide” value under setting [6] is “Tox”; the “CDI … with biocide” value (2nd of 3 copper concentrations (value not shown), 1st of four biocide concentrations) came to 1.09; the “CDI … with biocide” value (2nd of 3 copper concentrations (value not shown), 2nd of four biocide concentrations) was determined as 1.19. The “CDI … with biocide” value is on record as “Tox” under setting [7]; “Tox” under setting [1]; 0.99 (3rd of 3 copper concentrations (value not shown), 1st of four biocide concentrations); 0.96 (3rd of 3 copper concentrations (value not shown), 2nd of four biocide concentrations); “Tox” under setting [8]; “Tox” under setting [9]. In addition, the “CDI (coefficient of drug interaction)” value turned out to be 0.98 under setting [22]; 1.06 under setting [23]; 1.33 under setting [10]; 1.03 under setting [24]; 0.88 under setting [25]; 0.87 under setting [11]. Further, the “CDI (coefficient of drug interaction)” value was determined as 0.99 under setting [26], 0.96 under setting [27], 0.92 under setting [28] and 1.29 under setting [12]. In addition, the “CDI … silver + biocide” value is on record as 0.81 (Silver 0.5 μM, 1st of four biocide concentrations, E. coli); 0.61 (Silver 0.5 μM, 2nd of four biocide concentrations, E. coli); 0.68 (Silver 0.5 μM, 3rd of four biocide concentrations, E. coli); “Tox” under setting [2]; 0.89 (Silver 1.0 μM, 1st of four biocide concentrations, E. coli); 0.81 (Silver 1.0 μM, 2nd of four biocide concentrations, E. coli). The “CDI … silver + biocide” value reads like this: (Silver 1.0 μM, 3rd of four biocide concentrations, E. coli) 0.81; under setting [3], “Tox”; (Silver 5.0 μM, 1st of four biocide concentrations, E. coli) 1.32; (Silver 5.0 μM, 2nd of four biocide concentrations, E. coli) 1.43; (Silver 5.0 μM, 3rd of four biocide concentrations, E. coli) 1.37; under setting [4], “Tox”.

As for `O=C(O)c1cc(O)c(O)c(O)c1` [gallic acid], the “CDI (coefficient of drug interaction)” value by setting is: under setting [29], “Tox”; under setting [30], “Tox”; under setting [31], “Tox”. Moreover, the “CDI … gold + biocide” value is recorded as “Tox” under setting [16], “Tox” under setting [17] and “Tox” under setting [18]. Further, the CDI result was “Tox” under setting [13], “Tox” under setting [14] and “Tox” under setting [15].

For `Cc1onc(-c2ccccc2)c1C(=O)N[C@@H]1C(=O)N2[C@@H]1SC(C)(C)[C@@H]2C(=O)O` [oxacillin], the “CDI (coefficient of drug interaction)” value is reported as “Tox” (Copper (mM), 1st of 3 copper concentrations (head line not shown), biocide concentration 3 of 4, E. coli); “Tox” under setting [29]; “Tox” (Copper (mM), 2nd of 3 copper concentrations (head line not shown), biocide concentration 3 of 4, E. coli); “Tox” under setting [30]; “Tox” (Copper (mM), 3rd of 3 copper concentrations (head line not shown), biocide concentration 3 of 4, E. coli); “Tox” under setting [31]. For the same compound, the “CDI … gold + biocide” value reads like this: under setting [16], “Tox”; under setting [17], “Tox”; under setting [18], “Tox”. Besides, the CDI result is recorded as “Tox” under setting [19]; “Tox” under setting [13]; “Tox” under setting [20]; “Tox” under setting [14]; “Tox” under setting [21]; “Tox” under setting [15].

As to `N#CC(C#N)=NNc1cccc(Cl)c1` [CCCP, Carbonyl cyanide m-chlorophenylhydrazone], the “CDI (coefficient of drug interaction)” value is “Tox” under setting [29], “Tox” under setting [30] and “Tox” under setting [31]. Besides, the CDI result by setting is: under setting [13], “Tox”; under setting [14], “Tox”; under setting [15], “Tox”.

As for `O=C(O)CI` [lodoacetate], the “CDI (coefficient of drug interaction)” value by setting is: under setting [22], 0.77; under setting [23], “Tox”; (Gold section of Table 5, first of three gold concentrations (μM, value not given), biocide concentration 3 of 4) “Tox”; under setting [10], “Tox”; (Gold section of Table 5, second of three gold concentrations (μM, value not given), biocide concentration 1 of 4) 1.00; under setting [24], “Tox”. Besides, the “CDI (coefficient of drug interaction)” value is, setting by setting: under setting [25], “Tox”; under setting [11], “Tox”; under setting [26], 0.88; under setting [27], “Tox”; under setting [28], “Tox”; under setting [12], “Tox”.
